Data: PubChem BioAssay AID1259407 (Chemical Carcinogenesis Research Information System (CCRIS), 2018)
Activity calls are given as the source filed them. The rule behind the calls is not given here.

System: CCRIS mutagenicity, Ames/micronucleus/aberration tests
Experiment: CCRIS mutagenicity studies
[1] = Test System: AMES SALMONELLA TYPHIMURIUM, Strain/Indicator: TA98, Metabolic Activation: NONE, Method: PREINCUBATION
[2] = Test System: AMES SALMONELLA TYPHIMURIUM, Strain/Indicator: TA100, Metabolic Activation: NONE, Method: PREINCUBATION
[3] = Test System: AMES SALMONELLA TYPHIMURIUM, Strain/Indicator: TA98, Metabolic Activation: NONE, Method: STANDARD PLATE
[4] = Test System: AMES SALMONELLA TYPHIMURIUM, Strain/Indicator: TA98, Metabolic Activation: RAT, LIVER, S-9, AROCLOR 1254, Method: STANDARD PLATE
[5] = Test System: AMES SALMONELLA TYPHIMURIUM, Strain/Indicator: TA98, Metabolic Activation: S-9, Method: STANDARD PLATE
[6] = Test System: AMES SALMONELLA TYPHIMURIUM, Strain/Indicator: TA100, Metabolic Activation: NONE, Method: STANDARD PLATE
[7] = Test System: AMES SALMONELLA TYPHIMURIUM, Strain/Indicator: TA100, Metabolic Activation: RAT, LIVER, S-9, AROCLOR 1254, Method: STANDARD PLATE
[8] = Test System: AMES SALMONELLA TYPHIMURIUM, Strain/Indicator: TA100, Metabolic Activation: S-9, Method: STANDARD PLATE
[9] = Test System: AMES SALMONELLA TYPHIMURIUM, Strain/Indicator: TA1535, Metabolic Activation: NONE, Method: STANDARD PLATE
[10] = Test System: AMES SALMONELLA TYPHIMURIUM, Strain/Indicator: TA1537, Metabolic Activation: NONE, Method: STANDARD PLATE

**Q.** With `CC(=O)c1cc(NC(=O)NC(C)(C)C)ccc1OCC(O)CNC(C)(C)C` (configuration not stated) as the molecule, how does the mutagenic call [1] read?
**A.** inactive; negative

**Q.** What about the mutagenic call (Test System: AMES SALMONELLA TYPHIMURIUM, Strain/Indicator: TA98, Metabolic Activation: RAT, LIVER, S-9, PHENOBARBITAL AND 5,6-BENZOFLAVONE (10 OR 50 µL/PLATE), Method: PREINCUBATION) of the same molecule?
**A.** inactive; negative

**Q.** And the mutagenic call [2]?
**A.** inactive; negative

**Q.** And the mutagenic call (Test System: AMES SALMONELLA TYPHIMURIUM, Strain/Indicator: TA100, Metabolic Activation: RAT, LIVER, S-9, PHENOBARBITAL AND 5,6-BENZOFLAVONE (10 OR 50 µL/PLATE), Method: PREINCUBATION)?
**A.** inactive; negative

**Q.** And the mutagenic call (Test System: AMES SALMONELLA TYPHIMURIUM, Strain/Indicator: TA1535, Metabolic Activation: NONE, Method: PREINCUBATION)?
**A.** inactive; negative

**Q.** And the mutagenic call (Test System: AMES SALMONELLA TYPHIMURIUM, Strain/Indicator: TA1535, Metabolic Activation: RAT, LIVER, S-9, PHENOBARBITAL AND 5,6-BENZOFLAVONE (10 OR 50 µL/PLATE), Method: PREINCUBATION)?
**A.** inactive; negative

**Q.** And the mutagenic call (Test System: AMES SALMONELLA TYPHIMURIUM, Strain/Indicator: TA1537, Metabolic Activation: NONE, Method: PREINCUBATION)?
**A.** inactive; negative

**Q.** What about the mutagenic call (Test System: AMES SALMONELLA TYPHIMURIUM, Strain/Indicator: TA1537, Metabolic Activation: RAT, LIVER, S-9, PHENOBARBITAL AND 5,6-BENZOFLAVONE (10 OR 50 µL/PLATE), Method: PREINCUBATION) of the same molecule?
**A.** inactive; negative

**Q.** And the mutagenic call (Test System: E. COLI, Strain/Indicator: WP2 UVRA, Metabolic Activation: NONE, Method: PREINCUBATION)?
**A.** inactive; negative

**Q.** What about the mutagenic call (Test System: E. COLI, Strain/Indicator: WP2 UVRA, Metabolic Activation: RAT, LIVER, S-9, PHENOBARBITAL AND 5,6-BENZOFLAVONE (10 OR 50 µL/PLATE), Method: PREINCUBATION) of the same molecule?
**A.** inactive; negative

**Q.** For `Cc1cc(C(C)(C)C)c(O)c(C(C)(C)C)c1`, which mutagenic call (End Point: IN VITRO CHROMOSOMAL ABERRATIONS, Test System: CHINESE HAMSTER OVARY CELLS, Metabolic Activation: NONE) is on record?
**A.** inactive; negative

**Q.** And the mutagenic call (End Point: IN VITRO CHROMOSOMAL ABERRATIONS, Test System: CHINESE HAMSTER OVARY CELLS, Metabolic Activation: RAT, LIVER, S-9, AROCLOR 1254)?
**A.** inactive; negative; dose-related increase but it was not significant

**Q.** What about the mutagenic call (Test System: AMES SALMONELLA TYPHIMURIUM, Strain/Indicator: TA97, Metabolic Activation: NONE, Method: STANDARD PLATE) of the same molecule?
**A.** inactive; negative

**Q.** And the mutagenic call (Test System: AMES SALMONELLA TYPHIMURIUM, Strain/Indicator: TA97, Metabolic Activation: RAT, LIVER, S-9, AROCLOR 1254, Method: STANDARD PLATE)?
**A.** inactive; negative

**Q.** What about the mutagenic call (Test System: AMES SALMONELLA TYPHIMURIUM, Strain/Indicator: TA97, Metabolic Activation: RAT, LIVER, S-9, AROCLOR, Method: STANDARD PLATE) of the same molecule?
**A.** inactive; negative

**Q.** And the mutagenic call [1]?
**A.** inactive; negative

**Q.** And the mutagenic call [3]?
**A.** inactive; negative

**Q.** And the mutagenic call [4]?
**A.** inactive; negative

**Q.** And the mutagenic call (Test System: AMES SALMONELLA TYPHIMURIUM, Strain/Indicator: TA98, Metabolic Activation: RAT, LIVER, S-9, Method: PREINCUBATION)?
**A.** inactive; negative

**Q.** What about the mutagenic call [5] of the same molecule?
**A.** inactive; negative

**Q.** What about the mutagenic call [2] of the same molecule?
**A.** inactive; negative

**Q.** And the mutagenic call [6]?
**A.** inactive; negative

**Q.** What about the mutagenic call [7] of the same molecule?
**A.** inactive; negative

**Q.** And the mutagenic call (Test System: AMES SALMONELLA TYPHIMURIUM, Strain/Indicator: TA100, Metabolic Activation: RAT, LIVER, S-9, AROCLOR, Method: STANDARD PLATE)?
**A.** inactive; negative

**Q.** What about the mutagenic call (Test System: AMES SALMONELLA TYPHIMURIUM, Strain/Indicator: TA100, Metabolic Activation: RAT, LIVER, S-9, Method: PREINCUBATION) of the same molecule?
**A.** inactive; negative

**Q.** And the mutagenic call [8]?
**A.** inactive; negative

**Q.** What about the mutagenic call (Test System: AMES SALMONELLA TYPHIMURIUM, Strain/Indicator: TA102, Metabolic Activation: NONE, Method: STANDARD PLATE) of the same molecule?
**A.** inactive; negative

**Q.** What about the mutagenic call (Test System: AMES SALMONELLA TYPHIMURIUM, Strain/Indicator: TA102, Metabolic Activation: RAT LIVER S-9, PHENOBARBITAL AND 5,6-BENZOFLAVONE, Method: STANDARD PLATE) of the same molecule?
**A.** inactive; negative

**Q.** And the mutagenic call (Test System: AMES SALMONELLA TYPHIMURIUM, Strain/Indicator: TA102, Metabolic Activation: RAT, LIVER, S-9, AROCLOR, Method: STANDARD PLATE)?
**A.** inactive; negative

**Q.** And the mutagenic call (Test System: AMES SALMONELLA TYPHIMURIUM, Strain/Indicator: TA104, Metabolic Activation: NONE, Method: PREINCUBATION)?
**A.** inactive; negative

**Q.** What about the mutagenic call (Test System: AMES SALMONELLA TYPHIMURIUM, Strain/Indicator: TA104, Metabolic Activation: NONE, Method: STANDARD PLATE) of the same molecule?
**A.** inactive; negative

**Q.** What about the mutagenic call (Test System: AMES SALMONELLA TYPHIMURIUM, Strain/Indicator: TA104, Metabolic Activation: RAT, LIVER, S-9, AROCLOR, Method: PREINCUBATION) of the same molecule?
**A.** inactive; negative

**Q.** And the mutagenic call (Test System: AMES SALMONELLA TYPHIMURIUM, Strain/Indicator: TA104, Metabolic Activation: RAT, LIVER, S-9, AROCLOR, Method: STANDARD PLATE)?
**A.** inactive; negative

**Q.** And the mutagenic call (Test System: AMES SALMONELLA TYPHIMURIUM, Strain/Indicator: TA2638, Metabolic Activation: RAT LIVER S-9, PHENOBARBITAL AND 5,6-BENZOFLAVONE, Method: STANDARD PLATE)?
**A.** inactive; negative

**Q.** What about the mutagenic call (Test System: E. COLI, Strain/Indicator: WP2 (PKM101), Metabolic Activation: RAT LIVER S-9, PHENOBARBITAL AND 5,6-BENZOFLAVONE, Method: STANDARD PLATE) of the same molecule?
**A.** inactive; negative

**Q.** What about the mutagenic call (Test System: E.COLI, Strain/Indicator: WP2 UVRA (PKM101), Metabolic Activation: RAT LIVER S-9, PHENOBARBITAL AND 5,6-BENZOFLAVONE, Method: STANDARD PLATE) of the same molecule?
**A.** inactive; negative

**Q.** Which mutagenic call [4] does the source give for `O=C1c2ccc(O)c(O)c2C(=O)c2c(O)ccc(O)c21` here?
**A.** inactive; negative

**Q.** And the mutagenic call [6]?
**A.** inactive; negative

**Q.** What about the mutagenic call [7] of the same molecule?
**A.** inactive; negative

**Q.** What about the mutagenic call [9] of the same molecule?
**A.** inactive; negative

**Q.** And the mutagenic call (Test System: AMES SALMONELLA TYPHIMURIUM, Strain/Indicator: TA1535, Metabolic Activation: RAT, LIVER, S-9, AROCLOR 1254, Method: STANDARD PLATE)?
**A.** inactive; negative

**Q.** What about the mutagenic call [10] of the same molecule?
**A.** active; positive

**Q.** What about the mutagenic call (Test System: AMES SALMONELLA TYPHIMURIUM, Strain/Indicator: TA1537, Metabolic Activation: RAT, LIVER, S-9, AROCLOR 1254, Method: STANDARD PLATE) of the same molecule?
**A.** active; positive

**Q.** And the mutagenic call (Test System: AMES SALMONELLA TYPHIMURIUM, Strain/Indicator: TA1538, Metabolic Activation: RAT, LIVER, S-9, AROCLOR 1254, Method: STANDARD PLATE)?
**A.** inactive; negative

**Q.** Which results are given for `OCC(O)CI` (configuration not stated)?
**A.** mutagenic call (Test System: AMES SALMONELLA TYPHIMURIUM, Strain/Indicator: TA98, Metabolic Activation: HAMSTER, LIVER, S-9, AROCLOR 1254 (30%), Method: PREINCUBATION): inactive; negative; mutagenic call [1]: inactive; negative; mutagenic call (Test System: AMES SALMONELLA TYPHIMURIUM, Strain/Indicator: TA98, Metabolic Activation: RAT, LIVER, S-9, AROCLOR 1254 (30%), Method: PREINCUBATION): inactive; negative; mutagenic call (Test System: AMES SALMONELLA TYPHIMURIUM, Strain/Indicator: TA100, Metabolic Activation: HAMSTER, LIVER, S-9, AROCLOR 1254 (30%), Method: PREINCUBATION): active; positive; mutagenic call [2]: active; positive; mutagenic call (Test System: AMES SALMONELLA TYPHIMURIUM, Strain/Indicator: TA100, Metabolic Activation: RAT, LIVER, S-9, AROCLOR 1254 (30%), Method: PREINCUBATION): active; positive

**Q.** How did the mutagenic call [3] turn out when `CC(C)NCC(O)COc1cccc2c1OCC(O)C2` (configuration not stated) was run?
**A.** inactive; negative

**Q.** And the mutagenic call [5]?
**A.** inactive; negative

**Q.** And the mutagenic call [6]?
**A.** inactive; negative

**Q.** And the mutagenic call [8]?
**A.** inactive; negative

**Q.** And the mutagenic call [9]?
**A.** inactive; negative

**Q.** What about the mutagenic call (Test System: AMES SALMONELLA TYPHIMURIUM, Strain/Indicator: TA1535, Metabolic Activation: S-9, Method: STANDARD PLATE) of the same molecule?
**A.** inactive; negative

**Q.** And the mutagenic call [10]?
**A.** inactive; negative

**Q.** What about the mutagenic call (Test System: AMES SALMONELLA TYPHIMURIUM, Strain/Indicator: TA1537, Metabolic Activation: S-9, Method: STANDARD PLATE) of the same molecule?
**A.** inactive; negative

**Q.** What about the mutagenic call (Test System: AMES SALMONELLA TYPHIMURIUM, Strain/Indicator: TA1538, Metabolic Activation: NONE, Method: STANDARD PLATE) of the same molecule?
**A.** inactive; negative

**Q.** What about the mutagenic call (Test System: AMES SALMONELLA TYPHIMURIUM, Strain/Indicator: TA1538, Metabolic Activation: S-9, Method: STANDARD PLATE) of the same molecule?
**A.** inactive; negative

**Q.** And the mutagenic call (Test System: E. COLI, Strain/Indicator: WP2 UVRA, Metabolic Activation: NONE, Method: STANDARD PLATE)?
**A.** inactive; negative

**Q.** And the mutagenic call (Test System: E. COLI, Strain/Indicator: WP2 UVRA, Metabolic Activation: S-9, Method: STANDARD PLATE)?
**A.** inactive; negative
